Data on four compounds can be found in patent US8158656B2, “2-indolinone derivatives as multi-target protein kinase inhibitors and histone deacetylase inhibitors” (Shenzhen Chipscreen Biosciences Ltd., priority 2008, dated 2012).

One test deals with T1, c-Kit (Homo sapiens, UniProt P10721).
T1 construct: purchased Cell Signaling
The test can be described thus: c-KIT kinase ELISA bioassay. The format is biochemical. To be noted: ELISA kinase assay, 20 μM ATP. As to the method:
This assay is used to measure in vitro kinase activity of c-KIT in an ELISA assay.
• 1. Streptavidin coated, 96-well, white plate • 2. Phospho-Tyrosine Monoclonal Antibody (P-Tyr-100) (Cell Signaling) • 3. HRP-labeled anti-mouse IgG (Upstate) • 4. HTScan™ Tyrosine Kinase Buffer (4×) • 5. DTT (1000×. 1.25 M) • 6. ATP (10 mM) • 7. KDR (Tyr996) Biotinylated Peptide Substrate (Cell Signaling) • 8. c-KIT Kinase (recombinant, human) (Cell Signaling) • 9. Wash Buffer: 1× PBS, 0.05% Tween-20 (PBS/T) • 10. Bovine Serum Albumin (BSA) • 11. Stop Buffer: 50 mM EDTA pH 8 • 12. Enhanced chemiluminescence (ECL) (Amersham) Procedure for performing the assay in 96-well plate: • 1. Add 10 μl 10 mM ATP to 1.25 ml 6 μM substrate peptide. Dilute the mixture with dH20 to 2.5 ml to make 2× ATP/substrate cocktail ([ATP]=40 μM, [substrate]=3 μm). • 2. Immediately transfer enzyme from −80° C. to ice. Allow enzyme to thaw on ice. • 3. Microcentrifuge briefly at 4° C. to bring liquid to the bottom of the vial. Return immediately to ice. • 4. Add 10 μl of DTT (1.25 M) to 2.5 ml of 4× HTScan™ Tyrosine Kinase Buffer (240 mM HEPES pH 7.5, 20 mM MgCl2, 20 mM MnCl2, 12 μM Na3VO4) to make DTT/Kinase buffer. • 5. Transfer 1.25 ml of DTT/Kinase buffer to enzyme tube to make 4× reaction cocktail ([enzyme]=4 ng/μL in 4× reaction cocktail). • 6. Incubate 12.5 μl of the 4× reaction cocktail with 12.5 μl/well of prediluted compound of interest (usually around 10 μM) for 5 minutes at room temperature. • 7. Add 25 μl of 2× ATP/substrate cocktail to 25 μl/well preincubated reaction cocktail/compound. Final Assay Conditions for a 50 μl Reaction: • 60 mM HEPES pH 7.5 • 5 mM MgCl2 • 5 mM MnCl2 • 3 μM Na3VO4 • 1.25 mM DTT • 20 μM ATP • 1.5 μM peptide • 100 ng c-KIT Kinase • 8. Incubate reaction plate at room temperature for 30 minutes. • 9. Add 50 μl/well Stop Buffer (50 mM EDTA, pH 8) to stop the reaction. • 10. Transfer 25 μl of each reaction and 75 μl dH2O/well to a 96-well streptavidincoated plate and incubate at room temperature for 60 minutes. • 11. Wash three times with 200 μl/well PBS/T • 12. Dilute primary antibody, Phospho-Tyrosine Monoclonal Antibody (P-Tyr-100), 1:1000 in PBS/T with 1% BSA. Add 100 μl/well of primary antibody. • 13. Incubate at room temperature for 60 minutes. • 14. Wash three times with 200 μl/well PBS/T • 15. Dilute HRP labeled anti-mouse IgG 1:500 in PBS/T with 1% BSA. Add 100 μl/well diluted antibody. • 16. Incubate at room temperature for 30 minutes. • 17. Wash five times with 200 μl/well PBS/T. • 18. Add 100 μl/well ECL Solution. • 19. Detect luminescence with appropriate Plate Reader. Flt3 Bioassay
For orientation: ELISA stands for enzyme-linked immunosorbent assay.

For another test, the target named is VEGFR2 (Homo sapiens, UniProt P35968). Nature of the test: VEGF receptor kinase ELISA bioassay. In kind it is biochemical. The settings on record: ELISA kinase assay, 200 μM ATP.
Sequence of VEGFR2 (P35968 807-1356): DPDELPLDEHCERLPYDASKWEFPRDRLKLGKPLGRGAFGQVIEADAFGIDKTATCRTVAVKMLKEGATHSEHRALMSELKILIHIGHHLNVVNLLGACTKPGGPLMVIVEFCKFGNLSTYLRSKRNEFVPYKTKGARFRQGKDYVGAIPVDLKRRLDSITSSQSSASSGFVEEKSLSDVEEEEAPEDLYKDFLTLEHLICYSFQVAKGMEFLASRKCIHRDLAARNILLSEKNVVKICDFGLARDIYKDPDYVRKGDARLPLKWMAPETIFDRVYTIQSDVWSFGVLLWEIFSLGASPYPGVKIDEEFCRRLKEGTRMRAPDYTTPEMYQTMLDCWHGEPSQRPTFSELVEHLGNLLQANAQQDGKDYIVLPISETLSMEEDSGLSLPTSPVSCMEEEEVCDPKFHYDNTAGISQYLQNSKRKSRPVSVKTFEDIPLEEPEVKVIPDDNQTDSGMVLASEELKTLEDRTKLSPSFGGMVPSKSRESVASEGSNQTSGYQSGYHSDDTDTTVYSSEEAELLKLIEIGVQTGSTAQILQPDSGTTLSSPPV
For a further test, the system named is Hut-78. The test can be described thus: Tumor cell proliferation (MTS), Hut-78. In kind it is cell-based. The settings on record: Homo sapiens, HuT78, Hut-78, 72 hours. As to the method: (§1) Measurement of in vivo cell proliferation:
(§2) Tumor cells were trypsinized and plated into 96-well plates at 3,000 per well and incubated in complete medium with 10% FBS for 24 hours. Compounds were added over a final concentration range of 100 μmol/L to 100 nmol/L in 0.1% DMSO and incubated for 72 hours in complete medium. The effects on proliferation were determined by addition of MTS reagent (Promega) according to the instruction, incubation for 2 hours at 37° C. in CO2 incubator, and record the absorbance at 490 nm using an ELISA plate reader.

In another test the test system is U937. The test can be described thus: Tumor cell proliferation (MTS), U937. In kind it is cell-based. The settings on record: Homo sapiens, U-937, U937, 72 hours. As to the method:
as §1, §2

The test system of another test is HDAC4/5. The test can be described thus: MEF2 reporter assay in HeLa cells. The format is cell-based, human. To be noted: for HDAC4/5 (MEF2 reporter assay) % Max Resp of CS055 at 3 μM: relative to CS055 at 3 μM. The procedure: (§3) HDAC subtype selectivity inhibition assay of tested compounds was carried out by several reporter gene assays experiments. Briefly, HeLa cells were seeded in 96-well plates the day before transfection to give a confluence of 50-80%. Cells were transfected with one of reporter gene plasmid containing a promoter sequence or response element upstream of a luciferase gene construct using FuGene6 transfection reagent according to the manufacturer's instruction (Roche). The promoters or response elements including p21-promoter, gdf11-promoter, MEF-binding element (MEF2), Nur77-promoter were fused upstream to the luciferase gene reporter construct. For normalizing the transfection efficiency, a GFP expression plasmid was cotransfected. Cells were allowed to express protein for 24 hours followed by addition of individual compounds or the vehicle (DMSO). 24 hours later the cells were harvested, and the luciferase assay and GFP assay were performed using corresponding assay kits according to the manufacturer's instructions (Promega).
In general terms: Reporter assays use an easily measured gene product as a stand-in for the process of interest.

The next test has as its system MCF7. Nature of the test: Tumor cell proliferation (MTS), MCF7. The settings on record: Homo sapiens, MCF7, 72 hours. In kind it is cell-based. The procedure:
as §1, §2

Another test concerns Class I HDAC. Nature of the test: P21 reporter assay in HeLa cells. In kind it is cell-based, human. To be noted: for Class I HDAC (P21 reporter assay) % Max Resp of CS055 at 3 μM: relative to CS055 at 3 μM. As to the method: as §3
A further test relates to A549. Nature of the test: Tumor cell proliferation (MTS), A549. The format is cell-based. To be noted: Homo sapiens, A549, 72 hours. As to the method: as §1, §2
Another test has as its system HL60. The test can be described thus: Tumor cell proliferation (MTS), HL60. The format is cell-based. To be noted: Homo sapiens, HL-60, HL60, 72 hours. As to the method:
as §1, §2

T1 sequence (P10721 26-976): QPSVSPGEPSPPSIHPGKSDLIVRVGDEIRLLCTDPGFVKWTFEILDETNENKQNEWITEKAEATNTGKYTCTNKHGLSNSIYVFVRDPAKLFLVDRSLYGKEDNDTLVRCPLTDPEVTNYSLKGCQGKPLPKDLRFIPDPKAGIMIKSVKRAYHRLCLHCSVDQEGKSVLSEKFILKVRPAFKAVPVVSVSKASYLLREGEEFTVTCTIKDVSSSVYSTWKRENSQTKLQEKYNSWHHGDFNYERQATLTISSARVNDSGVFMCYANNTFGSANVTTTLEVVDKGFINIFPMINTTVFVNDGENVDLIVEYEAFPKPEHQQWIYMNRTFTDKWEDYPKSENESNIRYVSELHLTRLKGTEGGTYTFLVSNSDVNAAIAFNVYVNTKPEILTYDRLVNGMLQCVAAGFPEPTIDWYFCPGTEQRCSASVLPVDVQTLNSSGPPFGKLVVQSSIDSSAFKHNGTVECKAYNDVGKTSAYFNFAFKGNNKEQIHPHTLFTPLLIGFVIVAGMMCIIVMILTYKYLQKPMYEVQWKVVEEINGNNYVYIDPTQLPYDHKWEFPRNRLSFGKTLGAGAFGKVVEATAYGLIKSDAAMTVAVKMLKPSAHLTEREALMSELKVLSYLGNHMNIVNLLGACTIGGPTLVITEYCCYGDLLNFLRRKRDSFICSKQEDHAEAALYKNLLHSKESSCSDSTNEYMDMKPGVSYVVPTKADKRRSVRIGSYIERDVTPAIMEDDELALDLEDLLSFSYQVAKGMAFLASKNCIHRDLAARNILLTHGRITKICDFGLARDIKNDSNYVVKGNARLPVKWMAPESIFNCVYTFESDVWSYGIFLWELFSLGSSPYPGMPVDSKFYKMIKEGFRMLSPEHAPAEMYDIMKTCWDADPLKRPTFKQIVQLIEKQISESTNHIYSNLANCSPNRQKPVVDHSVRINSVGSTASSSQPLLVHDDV

As to `Cc1[nH]c(/C=C2\C(=O)Nc3ccc(F)cc32)c(C)c1C(=O)NCCCNc1ccc(C(=O)Nc2ccccc2N)cn1` [Example 6, (Z)-N-(2-aminophenyl)-6-(3-(2-((5-fluoro-2-oxoindolin-3-ylidene)methyl)-3,5-dimethyl-1H-pyrrole-4-carboxamido)propylamino)nicotinamide], the results for the IC50 against c-Kit and at VEGFR2 were 76 nM and 45 nM, respectively. Besides, the GI50 in the test with Hut-78, in the test with U937, in the test on MCF7, in the test with A549 and with HL60 was greater than 60 µM each time. The EC50 (in general, the midpoint of the concentration-response curve) in the test with HDAC4/5 (24 hours) is 1 µM; with Class I HDAC (24 hours) it was 2.5 µM. The “HDAC4/5 (MEF2 reporter assay) % Max Resp of CS055 at 3 μM” value in the test on HDAC4/5 is listed as 44.2%. For the same compound, the “Class I HDAC (P21 reporter assay) % Max Resp of CS055 at 3 μM” value in the test with Class I HDAC is given as 74.6%.

Consider `Cc1[nH]c(/C=C2\C(=O)Nc3ccc(F)cc32)c(C)c1C(=O)NCCNc1ccc(C(=O)Nc2ccc(F)cc2N)cn1` [Example 13, (Z)-N-(2-amino-4-fluorophenyl)-6-(2-(2-((5-fluoro-2-oxoindolin-3-ylidene)-methyl)-3,5-dimethyl-1H-pyrrole-4-carboxamido)ethylamino)nicotinamide], for which the figures for the IC50 on c-Kit and on VEGFR2 were 534 nM and 43 nM, respectively. Moreover, the GI50 in the test on Hut-78, in the test on U937, with MCF7, with A549 and with HL60 was greater than 60 µM in each case. Besides, the “HDAC4/5 (MEF2 reporter assay) % Max Resp of CS055 at 3 μM” value in the test with HDAC4/5 is listed as 0.5%. In addition, in the test on Class I HDAC, the “Class I HDAC (P21 reporter assay) % Max Resp of CS055 at 3 μM” value is on record as 2.1%.

Consider `Cc1[nH]c(/C=N/N=C2\C(=O)Nc3ccc(F)cc32)c(C)c1C(=O)NCCNc1ccc(C(=O)Nc2ccc(F)cc2N)cn1` [Example 14, N-(2-amino-4-fluorophenyl)-6-(2-(2-(((5-fluoro-2-oxoindolin-3-ylidene)-hydrazono)methyl)-3,5-dimethyl-1H-pyrrole-4-carboxamido)ethylamino)nicotinamide], for which the IC50 (commonly the point on the concentration scale where inhibition reaches its midpoint) on c-Kit is greater than 1000 nM; on VEGFR2 it was 324 nM. In addition, the GI50 in the test on Hut-78, in the test on U937, in the test with MCF7, in the test on A549 and with HL60 was greater than 60 µM each time. Also, in the test with HDAC4/5, the “HDAC4/5 (MEF2 reporter assay) % Max Resp of CS055 at 3 μM” value is 2.4%. Also, the “Class I HDAC (P21 reporter assay) % Max Resp of CS055 at 3 μM” value in the test on Class I HDAC was 2.1%.

For the compound `Cc1[nH]c(/C=C2\C(=O)Nc3ccc(F)cc32)c(C)c1C(=O)NCCCNc1ccc(C(=O)Nc2ccc(F)cc2N)cn1` [Example 16, (Z)-N-(2-amino-4-fluorophenyl)-6-(3-(2-((5-fluoro-2-oxoindolin-3-ylidene)-methyl)-3,5-dimethyl-1H-pyrrole-4-carboxamido)propylamino)nicotinamide], the IC50 against c-Kit was 242 nM; against VEGFR2, 72 nM. For the same compound, the GI50 with Hut-78, in the test on U937, with MCF7, with A549 and with HL60 was greater than 60 µM throughout. Moreover, the “HDAC4/5 (MEF2 reporter assay) % Max Resp of CS055 at 3 μM” value in the test with HDAC4/5 is −0.2%. In addition, the “Class I HDAC (P21 reporter assay) % Max Resp of CS055 at 3 μM” value in the test on Class I HDAC worked out at 2.5%.
